Laboratory results taken from US20100247461A1, “ANTI-INFLAMMATORY COMPLEXES” (Signum Biosciences, Inc., priority 2009, published 2010).
Like-named read-outs stand apart in the source and are kept apart here.

What was measured:
[1] = complex and its solutions; compared with ordinary silver salts of carboxylic acids
[2] = system: Propionibacterium acnes (strain ATCC 6919); assay: Inhibition of Propionibacterium acnes growth; type: cell-based
Procedure: The assay for the inhibition of growth of Propionibacterium acnes bacteria is described elsewhere (Nakatsuji et al., J Invest Dermatol, 2009, 129: 2480-2488). In brief, the strain ATCC 6919 of P. acnes (American Type Culture Collection, Manassas, Va.) was cultured on Brucella agar (R01254, Remel, Lenexa, Kans.) supplemented with 5% (v/v) defibrinated sheep blood, vitamin K (5 mg/ml, Remel, Lenexa, Kans.), and hemin (50 mg/ml, Remel, Lenexa, Kans.), under an anaerobic condition using Gas-Pak (BD, Sparks, Md.) at 37° C. A single colony was inoculated in Reinforced Clostridium Medium (Oxford, Hampshire, England) and cultured at 37° C. under the anaerobic condition. Each of the inventive complexes—AFC-Sr, AFC-Ag and AFC-Zn as well as AFC were dissolved in 100% (v/v) DMSO. Samples of each inventive complex, AFC and a solution of benzoyl peroxide (“BPO”) were then each incubated with an inoculum of P. acnes at a concentration of 1×10^6 CFU per mL in Reinforced Clostridium Medium in a 96-well microplate (100 μL per well) under anaerobic conditions for 72 hours. Samples of each were tested at final concentrations per well of 0.25 μg/mL, 0.5 μg/mL, 1.0 μg/mL, 1.95 μg/mL, 3.9 μg/mL, 7.8 μg/mL, 15.625 μg/mL, 31.25 μg/mL, 62.5 μg/mL, 125 μg/mL, 250μg/mL, and 500 μg/mL. A control well received only 5% (v /v) of DMSO in place of a sample of an inventive complex. After 72 hours incubation under anaerobic conditions, the P. acnes cultures in the 96-well microplate were mixed well and then absorbance readings at 600 nm were taken to determine bacterial growth. […] Growth curves of P. acnes determined for BPO, AFC, AFC-Sr, AFC-Ag and AFC-Zn are depicted in FIG. 3.

[3] = system: TPA-treated mouse ears (edema, ear thickness); assay: TPA mouse ear model of inflammation - edema inhibition; type: in vivo
Procedure: In brief, mice were sedated and their ears were treated with 1.2 μg/20 uL TPA (i.e., tetradecanoylphorbol-13-acetate). After 5 minutes, we dosed these TPA-treated ears with a single 8 μg/20 μL dose, a 2 μg/20 μL dose, or both doses, of provided complexes. After 24 hours, the mice were sacrificed and edema was measured by taking micrometer readings of each ear. […] These values were corrected for the thickness of normal, non TPA-treated mouse ears of littermate controls.

[4] = system: MPO (myeloperoxidase), neutrophil marker; assay: TPA mouse ear model of inflammation - MPO inhibition (dermal neutrophil infiltration); type: in vivo
Procedure: Briefly, we homogenized 6mm biopsy punches taken from both compound-treated ears as well as TPA-treated and non-treated control groups. We quantitated the levels of MPO by a colorimetric reaction that was measured spectrophotometrically. The percent inhibition of neutrophil infiltration by each complex was determined by comparing the average MPO levels in the presence and absence of these compounds. The calculation for percent inhibition of MPO was determined similar to that as described for calculating the percent edema inhibition, see the Edema Inhibition protocol, supra.

[5] = system: TPA-treated mouse ears (edema, ear thickness); assay: TPA mouse ear model of inflammation - edema inhibition; type: in vivo; settings: topical, 24 hours
neutrophils = assay: Inhibition of oxidative burst from neutrophils (fMLP-induced superoxide release); type: cell-based; settings: reduction of superoxide formation, fMLP 0.2 μM, 0 to 100 μM compound; read-out: ED50 Respiratory Burst
Procedure: During inflammation, neutrophils produce and release superoxide ions, otherwise known as oxidative burst response, causing cytotoxicity. […] The superoxide release assay is based on published protocols (Goldstein et al. (1975). J. Clin. Invest. 56(5): 1155-63). Briefly, cells were pre-incubated for 10 min at 37° C. with a mixture of cytochrome c (75 μM final concentration), cytochalasin B (5 μg/ml) with or without superoxide dismutase (SOD) (10 μg/ml) and with or without AFC, AFC-Calcium complex, and AFC-Strontium complex (ranging from 0 to 100 μM). To initiate O2^− release, fMLP (0.2 μM) was added the cells are incubated for 10 min at 37° C. Samples were then placed on ice for 5 min and subsequently centrifuged at 3,000 rpm at 4° C. The supernatant was then analyzed by spectrophotometric measurement at 550 and 556.5 nm. The ED50 values for the reduction of superoxide formation, obtained with AFC, AFC-Calcium complex, and AFC-Strontium complex are depicted in Table 2.

[6] = system: MPO activity (neutrophil infiltration) in P. acnes-injected ear; assay: P. acnes-induced mouse ear model of inflammation - MPO endpoint; type: in vivo; settings: dose of 0.4 mg/20 μL
Procedure: The methods for a model of P. acnes-inflammation are described elsewhere (Nakatsuji et al., J Invest Dermatol, 2008, 128: 2451-2457).
The protocol for inducing inflammation using P. acnes bacterial challenge on the mouse ear was slightly modified from the method described previously (Natatsuji et al., 2008). Briefly, Swiss Webster (ICR, 6-8 weeks old) mouse ears were injected with living P. acnes culture intradermally. An amount of 20 μl aliquots of living P. acnes (ATCC 6919, 3×10^6 CFU) suspended in PBS was intradermally injected in the central portion of the ear. As a control, 20 μl of PBS was injected into control animals.
To assay for inhibition of dermal neutrophil infiltration by AFC complexes, a standard method was used (see Bradley et al., J Invest Dermatol, 1982,78: 206-209; Young et al., J Invest Dermatol, 1983, 80: 48-52; De Young et al, Agents Actions, 1989, 26: 335-41; and Rao et al., Inflammation, 1993, 17: 723-41). Briefly, 6mm biopsy punches taken from both compound-treated ears as well as non-treated control ears were homogenized in 400 μl of 0.5% hexadecyltrimethylammonium bromide in 50 mM potassium phosphate buffer (pH 6.0) using the Fast Prep 24 (MP Biomedicals, Solon, Ohio). Supernatants were assayed for MPO activity using a model EL 340 96-well plate reader (BioTek Instruments, Winooski, Vt.). The percent inhibition of neutrophil infiltration by each AFC complex was determined by comparing the average MPO levels in the presence and absence of these compounds. The percent inhibition of MPO was determined by taking the average MPO activity of compound-treated ears and dividing it by the average MPO activity of 12 ears that only received the P. acnes challenge and subtracting that value from 100%. These values were corrected for the MPO activity of normal, non P. acnes-treated mouse ears of littermate controls. Summary of MPO activity ranges determined from an MPO activity assay for dexamethasone (administered at a dose of 1.6 mg/20 μL), clobetasol (administered at a dose of 0.1 mg/20 μL), salicylic acid (administered at a dose of 0.4 mg/20 μL), AFC (administered at a dose of 0.4 mg/20 μL), AFC-Strontium complex (administered at a dose of 0.4 mg/20 μL) and SFC-disodium are presented in Table 4. “+” indicates a range of 0-20%, “++” indicates a range of 20-40%, and “+++” indicates >40% inhibition.

[7] = system: TPA-treated mouse ears (erythema, Δa* redness); assay: TPA mouse ear model of inflammation - erythema inhibition; type: in vivo; settings: topical, 24 hours
Procedure: The protocol for measuring erythema inhibition by provided complexes was developed in-house by utilizing the CR-400 chroma meter from Konica Minolta (2). This instrument was used to measure the Δa*redness value from 6 mm biopsy punches taken 24 hours post TPA/compound treatment as described in the edema inhibition section above. […] These values were corrected for the Δa* value of non TPA-treated mouse ears of littermate controls.

## CC(=O)N[C@@H](CSC/C=C(\C)CC/C=C(\C)CCC=C(C)C)C(=O)[O-].[Ag+] [AFC-Silver complex, Silver (R)-2-acetamido-3-((2E,6E)-3,7,11-trimethyldodeca-2,6,10-trienylthio)propanoate]
[1]
  light and air stability: enhanced light and air stability
[2]
  IC50 (inhibition of P. acnes growth): 16.9 µg/mL

## CC(=O)N[C@@H](CSC/C=C(\C)CC/C=C(\C)CCC=C(C)C)C(=O)O [AFC-strontium complex, Strontium (R)-2-acetamido-3-((2E,6E)-3,7,11-trimethyldodeca-2,6,10-trienylthio)propanoate]
[3]; TPA-treated mouse ear, topical
  ED50 for edema inhibition: 21700 µM
[3]; mouse ear inflammation assay
  decrease of edema compared with another complex or AFC alone: more effective at decreasing edema than the calcium complex
[4]; TPA-treated mouse ear, several concentrations, inhibitory activity curves
  ED50 in the MPO assay: 315 μg/ear
[4]; TPA-treated mouse ear, topical
  ED50 value for inhibiting neutrophil infiltration: 5020 µM
[4]; TPA-treated mouse ear, topical, 4% concentration, 24 hours
  % MPO Inhibition in the Mouse Ear Inflammation Assay (4% concentration): +++ (“+++” indicates >80% inhibition of MPO)
[4]; mouse ear inflammation assay
  MPO inhibition compared with another complex or AFC alone: improved MPO inhibition than the calcium complex
[4]; versus AFC oil
  fold lower ED50 value for inhibiting neutrophil infiltration than the AFC oil: ~8 fold
[5]
  % Edema Inhibition in the Mouse Ear Inflammation Assay (4% concentration): +++ (“+++” indicates >50% inhibition of edema)
neutrophils
  EC50: 35.6 µM
[2]; 72 hours, anaerobic, absorbance 600 nm, 1×10^6 CFU per mL
  IC50 (inhibition of P. acnes growth): 12.6 µg/mL
[6]
  MPO % Inhibition: +++ (“+++” indicates >40% inhibition)
[7]
  % Erythema Inhibition in the Mouse Ear Inflammation Assay (4% concentration): +++ (“+++” indicates >40% inhibition of erythema)
